# Counter-ions that a name gives are not always drawn.
# How the values were obtained:
# [1] = tested on: mouse liver of hepatic fibrosis model; test: Inhibition test of ferroptosis in mouse liver of hepatic fibrosis model; assay type: in vivo, SD mice; settings: 15 mg/Kg or 25 mg/Kg, intragastric, once a day, 8 weeks; versus model group
# Procedure: 36 7-week-old SPF-grade SD mice of 200-250 g are randomly divided into 4 groups, namely a control group, a model group, a model+low-dose dimethyl fumarate (15 mg/Kg) group and a model+high-dose dimethyl fumarate (25 mg/Kg) group. In the model group, subcutaneous injection of 0.3 ml/100 g of 40% CCI4 peanut oil solution is used for modeling twice a week. It is started from the second week, 10% alcohol is used as the only beverage, the mice are fed with a corn meal feed mixed with 0.5% cholesterol, and modeling is continuously performed for 8 weeks. At the same time of modeling, the model+administration group are respectively given with dimethyl fumarate (15 mg/Kg) and dimethyl fumarate (25 mg/Kg) once a day by intragastric administration for 8 consecutive weeks. After that, the mice are anesthetized with 5% chloral hydrate in abdominal cavity, and the liver tissues are collected, partly fixed in formalin, and partly stored in liquid nitrogen. Then the following tests are separately performed (the dimethyl fumarate in the drawings of the description is represented by DMF):
# (§1) A specific method is as follows: a mouse liver tissue sample fixed in 10% formalin is dehydrated, paraffin-immersed and embedded, and the paraffin-embedded tissue is sectioned. […]
# (§2) A specific method is as follows: the paraffin-embedded tissue sections are baked in a constant temperature oven at 65° C. for 60 min to dissolve the paraffin, and then sequentially put in xylene to dewax and be transparent, and hydrated in ethanol solution with the concentrations from high to low. After the tissue sections are rinsed with PBS solution, a reagent A in a ready-to-use immunohistochemical hypersensitive UltraSensitive™ SP kit (Maixin Biotech Company, KIT-9707) is respectively added dropwise to remove an endogenous peroxidase from the tissues, and a reagent B is blocked by goat serum. […]
# [2] = tested on: HepG2 and LO2 cells; test: Determination test of cell membrane lipid peroxidation level (MDA detection kit); assay type: cell-based, Human; settings: 6 h; for cell membrane lipid peroxidation level (stimulus alone): 80 mM ethanol or 10 μM DOX alone
# Procedure: Human hepatocytes HepG2 and LO2 cells are obtained from the cell bank of Xiangya Hospital. The medium is DMEM medium (HyClone, SH30022.01) and RPMI medium (HyClone, SH30809.01) containing 10% fetal bovine serum (Gibco, 10091148) and 100 U/mL ampicillin+streptomycin double-antibody (Gibco, 10378016). The cell incubator conditions are 37° C., constant temperature and humidity, and constant carbon dioxide concentration of 5%. DMSO, 1 μM of Erastin, 80 mM of ethanol, 10 μM of DOX, 10 μM DOX+10 μM dimethyl fumarate, 10 μM DOX+10 μM monomethyl fumarate, 10 μM DOX+1 μM Ferrostatin-1, 80 mM ethanol+10 μM dimethyl fumarate, 80 mM ethanol+10 μM monomethyl fumarate, and 80 mM ethanol+1 μM Ferrostatin-1 are respectively added to monolayer adherent hepatocytes HepG2 and LO2 cells. After being incubated for 6 h, the cells are gently rinsed with PBS buffer pre-cooled at 4° C. for 3 times, and every 1 million cells are homogenized with 0.1 mL of IP lysate (Beyotime, […]), and supernatant is collected after centrifugation at 4° C. The cell membrane lipid peroxidation level is measured by MDA detection kit (Beyotime, […]), specific operations are performed according to the instructions, and the test is repeated for three times.
# [3] = tested on: HepG2 cells; test: GSH and GSSG level determination test; assay type: cell-based, Human; settings: 10 μM and 30 μM, incubated 20 h; concentration-dependent
# Procedure: Human hepatocytes HepG2 and LO2 cells are obtained from the cell bank of Xiangya Hospital. The medium is DMEM medium (HyClone, SH30022.01) and RPMI medium (HyClone, SH30809.01) containing 10% fetal bovine serum (Gibco, 10091148) and 100 U/mL ampicillin+streptomycin double-antibody (Gibco, 10378016). The cell incubator conditions are 37° C., constant temperature and humidity, and constant carbon dioxide concentration of 5%. Monolayer adherent HepG2 cells are digested with a trypsin into single-cell suspension, and the cells are plated on a 96-well plate at 4000 cells/well. After the cells are adhered for 4-6 h, DMSO, 10 μM of dimethyl fumarate, 30 μM of dimethyl fumarate, 10 μM of monomethyl fumarate and 30 μM of monomethyl fumarate are respectively added to the cell culture plate, and incubated for 20 h, GSH/GSSG-Glo™ Assay Kit (Promega, V6611) is used to detect the total GSH and GSSH of the cells. Specific operations are performed according to the instructions, and the experiment is repeated for three times.
# [4] = tested on: GPX4 protein level of HepG2 and LO2 cells; test: Western Blot test 1: GPX4 protein level, ethanol stimulation; assay type: cell-based, Human; settings: 6 h
# Procedure: Human hepatocytes HepG2 and LO2 cells are obtained from the cell bank of Xiangya Hospital. The medium is DMEM medium (HyClone, SH30022.01) and RPMI medium (HyClone, SH30809.01) containing 10% fetal bovine serum (Gibco, 10091148) and 100 U/mL ampicillin+streptomycin double-antibody (Gibco, 10378016). The cell incubator conditions are 37° C., constant temperature and humidity, and constant carbon dioxide concentration of 5%. […] After being incubated for 6 h, the cells are gently rinsed with PBS buffer pre-cooled at 4° C. for 3 times, and then extracted for total protein of the cells with RI PA lysate (Beyotime, P0013B). Specific operations are performed according to the instructions. After the concentration of the extracted protein is determined by BCA protein concentration determination kit (Beyotime, [MUT]), it is stored at -20° C. for later use. Each group of protein sample and 2×Loading Buffer is prepared at a volume ratio of 1:1, and placed in a metal bath at 100° C. to boil and denature for 10 min, then placed on ice to cool for 5 min, and a sample is waited to be loaded. Specific operations are performed according to the instructions. The test is repeated for three times.
# [5] = tested on: mouse liver of alcoholic fatty liver disease model; test: Inhibition test of ferroptosis in mouse liver of alcoholic fatty liver disease model; assay type: in vivo, C57BL/6 male mice; settings: 100 mg/Kg or 200 mg/Kg, intragastric, once a day, 10 consecutive days; versus model group
# Procedure: 24 8-week-old SPF-grade C57BL/6 male mice are randomly divided into 4 groups, namely a blank group, a model group, a model+low-dose dimethyl fumarate (100 mg/Kg) group and a model+high-dose dimethyl fumarate (200 mg/Kg) group. The mice are let free to drink Lieber-DeCarli control diet for 5 days to gradually adapt to liquid diet and tube feeding. Subsequently, the model group is allowed to drink freely with 5% (volume/volume) standard Lieber-DeCarli alcohol liquid diet for 10 days, while the control group uses isocaloric control diet. From the 11-th day, the model+administration group is respectively administrated with dimethyl fumarate (100 mg/Kg) and dimethyl fumarate (200 mg/Kg) by intragastric administration once a day for 10 consecutive days. After that, the mice are anesthetized with 5% chloral hydrate in abdominal cavity, and liver tissues are collected, partly fixed in 10% formalin, and partly stored in liquid nitrogen. Then the following tests are separately performed (the dimethyl fumarate in the drawings of the description is represented by DMF):
# as §1, §2
# [6] = tested on: GPX4 protein level of HepG2 and LO2 cells; test: Western Blot test 2: GPX4 protein level, DOX stimulation; assay type: cell-based, Human; settings: 6 h
# Procedure: The medium is DMEM medium (HyClone, SH30022.01) and RPMI medium (HyClone, SH30809.01) containing 10% fetal bovine serum (Gibco, 10091148) and 100 U/mL ampicillin+streptomycin double-antibody (Gibco, 10378016). The cell incubator conditions are 37° C., constant temperature and humidity, and constant carbon dioxide concentration of 5%. 10 μM of DOX, 10 μM DOX+10 μM dimethyl fumarate, 10 μM DOX+10 μM monomethyl fumarate, and 10 μM DOX+1 μM Ferrostatin-1 are respectively added to monolayer adherent hepatocytes HepG2 and LO2 cells. After being incubated for 6 h, the cells are gently rinsed with PBS buffer pre-cooled at 4° C. for 3 times, and then a total protein of the cells is extracted with RIPA lysate (Beyotime, P0013B). Specific operations are performed according to the instructions. After the concentration of the extracted protein is determined by BCA protein concentration determination kit (Beyotime, [MUT]), it is stored at -20° C. for later use. Each histone sample and 2×Loading Buffer are prepared at a volume ratio of 1:1, and placed in a metal bath at 100° C. to boil and denature for 10 min, then placed on ice to cool for 5 min, and a sample is waited to be loaded. Specific operations are performed according to the instructions. The test is repeated for three times.
# [7] = 10 μM DOX + 10 μM test substance
# [8] = 80 mM ethanol + 10 μM test substance
Compound,liver 4-HNE protein level (immunohistochemistry) [1],liver GPX4 protein level (immunohistochemistry) [1],"liver pathological changes (fatty degeneration, necrosis, periportal inflammation, fibrosis; H&E and Sirius Red staining) [1]","cell membrane lipid peroxidation level caused by DOX [2, 7]","cell membrane lipid peroxidation level caused by ethanol [2, 8]",GSH level of the HepG2 cells [3],GSSH level of the HepG2 cells [3],"GPX4 protein level of ethanol-stimulated cells [4, 8]",fatty degeneration of the hepatocytes and pericentral periphlebitis (H&E staining) [5],liver 4-HNE protein level (immunohistochemistry) [5],"liver GPX4 protein level (immunohistochemistry, Western blot) [5]","GPX4 protein level of DOX-stimulated cells [6, 7]",cell membrane lipid peroxidation level (stimulus alone) [2],GPX4 protein level (ethanol alone) ([4]; 80 mM ethanol),GPX4 protein level (DOX alone) ([6]; 10 μM DOX)
"COC(=O)/C=C/C(=O)OC [dimethyl fumarate, Dimethyl fumarate]",significantly down-regulated,significantly up-regulated,significantly reduced,significantly inhibit,significantly inhibit,significantly up-regulate,significantly up-regulate,significantly up-regulate,significantly reduced,significantly down-regulated,significantly up-regulated,significantly up-regulate,,,
CCO [ethanol],,,,,,,,,,,,,significantly up-regulate,significantly down-regulate,
"COc1cccc2c1C(=O)c1c(O)c3c(c(O)c1C2=O)C[C@@](O)(C(=O)CO)C[C@@H]3O[C@H]1C[C@H](N)[C@H](O)[C@H](C)O1 [DOX, doxorubicin]",,,,,,,,,,,,,significantly up-regulate,,significantly down-regulate
